Laboratory results published in patent US20100272699A1, “MC-1R, MC-2R, and/or µ OPIOID RECEPTORS STIMULATION” (BASF BEAUTY CARE SOLUTIONS FRANCE S.A.S., priority 2007, published 2010).

Key:
Type in all cases: cell-based, human
MC-1R = experiment: RT-PCR of MC-1R mRNA in keratinocytes put in contact with actives; conditions: for stimulation of mRNA synthesis of the 3 receptors (MC-1R): positive controls in keratinocytes: TGF-β 1 ng/ml, TNF-α 100 ng/mL, IL-1α 50 pg/ml, quantitative RT-PCR (x2 or x.08 for the 3 inducers)
Excerpt: (§1) In particular, the extracts are obtained by macerating plants (preferably roots, rhizomes, stems, bark, flowers, fruits, seeds, germs, or leaves) at 1-10% (p/p), usually 1-5% in a solvent or a mixture of solvents, usually a mixture of water and alcohol, glycol, or polyol (such as ethanol, glycerol, butylene glycol and other glycols, xylitol, etc.) 100/0 to 0/100, and preferably in water. The extracts obtained are then filtered or distilled in order to recover the soluble portion, which is then filtered, preferably at 0.45 μm. Biotechnological hydrolysates are obtained via the fermentation of plant extracts in the presence of microorganisms usually from the family of lactic bacteria, in particular bactobacillus plantarum, or paracasei, and bifidobacterium, in particular longum or Saccharomyces. These hydrolysates are then filtered, preferably to 0.45 μm, in order to obtain the active components.
(§2) The characterized molecules are prepared via dissolution in a solvent, usually DMSO, ethanol, glycol, and in particular DMSO at a concentration of 0.1%.
(§3) The active components are tested for keratinocytes after dissolution in the culturing environment: usually between 0.1% and 2% (v/v) for plants and biotechnological hydrolysates and in particular from 0.5% to 1% and usually between 0.001% and 0.01% for characterized molecules. The present results are obtained with 1% in the culturing environment for plant extracts and biotechnological hydrolysates, and with 0.01% for characterized molecules.
(§4) Keratinocytes taken from plastic surgery on normal adults through enzymatic digestion have been amplified in a specific environment for keratinocytes and then seeded, for example at 50,000 per cm^2 in 24-well plates and cultivated in a single layer in a definite no-serum environment. Upon convergence, the cells are put in contact with diluted actives in the culturing environment, usually for 24 hours.
(§5) In parallel, an untreated control (environment alone) and 3 positive controls (TGF-β at 1 ng/ml, IL-1α at 50 pg/ml and TNF-α at 100 ng/mL) are usually carried out, for example on the same cultivation plate. TGF-β at 1 ng/ml, TNF-α at 100 ng/mL, and IL-1α at 50 pg/ml were previously tested and stimulation of mRNA synthesis of the 3 receptors induced by these 3 cytokins at these concentrations was verified through an analysis of mRNA, for example by quantatitive RT-PCR (x2 or x.08 for the 3 inducers). […]
(§6) The parameters of amplification have usually been the following: The technique of RT-PCR in real time is conducted with the “Quanti Tect SYBR Green RT-PCR” kit (Qiagen, France) on wells containing mRNA, in an OPTICON thermocycler, which carries out cycles of amplification. […] At the end of each cycle, fluorescence, which is proportional to the number of fragments amplified, is read. […]

MC-2R = experiment: RT-PCR of MC-2R mRNA in keratinocytes put in contact with actives; conditions: for stimulation of mRNA synthesis of the 3 receptors (MC-2R): positive controls in keratinocytes: TGF-β 1 ng/ml, TNF-α 100 ng/mL, IL-1α 50 pg/ml, quantitative RT-PCR (x2 or x.08 for the 3 inducers)
Excerpt: as §1, §2, §3, §4, §5, §6

μ opioid R = experiment: RT-PCR of μ opioid R mRNA in keratinocytes put in contact with actives; conditions: for stimulation of mRNA synthesis of the 3 receptors (μ opioid R): positive controls in keratinocytes: TGF-β 1 ng/ml, TNF-α 100 ng/mL, IL-1α 50 pg/ml, quantitative RT-PCR (x2 or x.08 for the 3 inducers)
Excerpt: as §1, §2, §3, §4, §5, §6

POMC = experiment: RT-PCR of POMC mRNA in keratinocytes put in contact with actives; conditions: mRNA vs untreated control, relative to actin, 24 hours, 1% plant extracts and biotechnological hydrolysates, 0.01% characterized molecules
Excerpt: as §1, with “components. […]” for “components.”
as §6

[1] = mRNA vs untreated control, relative to actin, keratinocytes, 24 hours, 1% plant extracts and biotechnological hydrolysates, 0.01% characterized molecules

Row | Compound | MC-1R Control X: (MC-1R; [1]) [Control X] | MC-2R Control X: (MC-2R; [1]) [Control X] | μ opioid R Control X: (μ opioid R; [1]) [Control X] | POMC Control X: (POMC) [Control X] | stimulation of mRNA synthesis of the 3 receptors (MC-1R) (MC-1R) | stimulation of mRNA synthesis of the 3 receptors (MC-2R) (MC-2R) | stimulation of mRNA synthesis of the 3 receptors (μ opioid R) (μ opioid R)
1 | CC1=CC(=O)C2=C(C)CC(OC(=O)Cc3ccccc3)C3C(C)C(=O)OC3C12 (stereo not shown) [phenylacetic acid 3,6,9-trimethyl-2,7-dioxo-2,3,3a,4,5,7,9a,9b-octahydro-azuleno[4,5-b]furan-4-yl] | 20.0 | 20.0 | 1.0 | 1 | – | – | –
2 | IL-1α: cytokine used as positive control at 50 pg/ml | – | – | – | – | stimulation | stimulation | stimulation
3 | TGF-β | – | – | – | – | stimulation | stimulation | stimulation
4 | TNF-α | – | – | – | – | stimulation | stimulation | stimulation
